Where only a bound is given, the exact number is not on record here.

The target in the test is T1, human Src kinase (Homo sapiens, UniProt P12931).
T1 construct: full length recombinant human Src kinase (from Upstate Biotechnology, cat. no. 14-117); purchased Upstate Biotechnology 14-117; host or cells: baculo viral cells
Description: SRC inhibition assay (radioactivity-based or spectrophotometric assay). It counts as biochemical. Conditions: recombinant human Src kinase; assay A or B; read-out: Ki value on SRC. The method, boiled down: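 Full-length recombinant human Src from baculovirus was used. In the radiometric format, enzyme was preincubated 10 min at 30 °C, the reaction was started with ^33P-ATP and run 20 min, then TCA-quenched and filter-counted. The alternative format monitored poly Glu-Tyr phosphorylation by NADH-coupled A340 rate. Ki came from competitive-inhibition fits.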

T1 sequence (P12931 whole entry): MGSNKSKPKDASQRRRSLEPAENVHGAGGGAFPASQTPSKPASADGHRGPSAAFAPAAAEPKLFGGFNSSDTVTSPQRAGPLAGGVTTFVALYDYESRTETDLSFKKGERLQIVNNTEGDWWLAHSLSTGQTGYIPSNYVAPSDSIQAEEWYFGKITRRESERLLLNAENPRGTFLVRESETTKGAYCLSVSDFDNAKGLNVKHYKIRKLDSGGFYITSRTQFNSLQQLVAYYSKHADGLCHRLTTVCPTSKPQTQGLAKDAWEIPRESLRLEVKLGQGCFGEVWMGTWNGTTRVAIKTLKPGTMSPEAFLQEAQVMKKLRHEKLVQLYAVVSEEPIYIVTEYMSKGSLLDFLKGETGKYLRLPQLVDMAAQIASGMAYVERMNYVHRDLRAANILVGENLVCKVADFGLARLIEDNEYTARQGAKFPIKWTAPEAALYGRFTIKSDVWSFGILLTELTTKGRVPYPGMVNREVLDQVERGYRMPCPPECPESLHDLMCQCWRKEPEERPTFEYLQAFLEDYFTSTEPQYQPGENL

As usually defined, the Ki is the equilibrium dissociation constant of an inhibitor or competing ligand from its target. `c1ccc2c(Nc3cc(C4CC4)[nH]n3)nc(Nc3ccc4ncsc4c3)nc2c1` [IIc-32, [2-(Benzothiazol-6-ylamino)-quinazolin-4-yl]-(5-cyclopropyl-2H-pyrazol-3-yl)-amine]: the Ki was less than 100 nM.
